Experimental data reported in PMC12452633 (RSC Medicinal Chemistry, 2025).

Experiments:
Ku70–Ku80 = Ku70–Ku80 (Homo sapiens, UniProt P12956+P13010); assay: nano Differential Scanning Fluorometry; assay type: binding; details: 0 to 25 μM ligand
Ku70/80 = Ku70/80 (Homo sapiens, UniProt P12956+P13010); assay: Ku–DNA binding EMSA; details: for IC50: Ku70/80 (IC50), purified Ku70/80, direct DNA binding activity by EMSA
DNA-PK = DNA-PK (Homo sapiens, UniProt P12956+P13010); assay: DNA-PK phosphoryl-transferase catalytic; assay type: biochemical
DNA-PK, sequence (P12956 whole entry): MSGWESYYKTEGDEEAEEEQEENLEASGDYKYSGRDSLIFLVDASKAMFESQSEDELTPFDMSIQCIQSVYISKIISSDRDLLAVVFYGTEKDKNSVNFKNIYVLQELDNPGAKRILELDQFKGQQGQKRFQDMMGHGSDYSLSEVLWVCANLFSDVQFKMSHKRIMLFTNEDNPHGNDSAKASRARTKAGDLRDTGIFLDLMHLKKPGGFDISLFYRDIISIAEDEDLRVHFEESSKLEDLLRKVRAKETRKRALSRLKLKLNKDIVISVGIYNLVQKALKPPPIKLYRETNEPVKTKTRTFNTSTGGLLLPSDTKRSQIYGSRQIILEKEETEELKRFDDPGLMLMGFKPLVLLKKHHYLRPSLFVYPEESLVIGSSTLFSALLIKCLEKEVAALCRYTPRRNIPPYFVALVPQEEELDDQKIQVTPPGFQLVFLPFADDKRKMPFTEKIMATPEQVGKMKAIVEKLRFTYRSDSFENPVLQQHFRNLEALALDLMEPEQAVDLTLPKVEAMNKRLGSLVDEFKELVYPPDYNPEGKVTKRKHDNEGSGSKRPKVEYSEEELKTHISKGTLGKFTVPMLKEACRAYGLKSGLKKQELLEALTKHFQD
DNA-PK, sequence (P13010 whole entry): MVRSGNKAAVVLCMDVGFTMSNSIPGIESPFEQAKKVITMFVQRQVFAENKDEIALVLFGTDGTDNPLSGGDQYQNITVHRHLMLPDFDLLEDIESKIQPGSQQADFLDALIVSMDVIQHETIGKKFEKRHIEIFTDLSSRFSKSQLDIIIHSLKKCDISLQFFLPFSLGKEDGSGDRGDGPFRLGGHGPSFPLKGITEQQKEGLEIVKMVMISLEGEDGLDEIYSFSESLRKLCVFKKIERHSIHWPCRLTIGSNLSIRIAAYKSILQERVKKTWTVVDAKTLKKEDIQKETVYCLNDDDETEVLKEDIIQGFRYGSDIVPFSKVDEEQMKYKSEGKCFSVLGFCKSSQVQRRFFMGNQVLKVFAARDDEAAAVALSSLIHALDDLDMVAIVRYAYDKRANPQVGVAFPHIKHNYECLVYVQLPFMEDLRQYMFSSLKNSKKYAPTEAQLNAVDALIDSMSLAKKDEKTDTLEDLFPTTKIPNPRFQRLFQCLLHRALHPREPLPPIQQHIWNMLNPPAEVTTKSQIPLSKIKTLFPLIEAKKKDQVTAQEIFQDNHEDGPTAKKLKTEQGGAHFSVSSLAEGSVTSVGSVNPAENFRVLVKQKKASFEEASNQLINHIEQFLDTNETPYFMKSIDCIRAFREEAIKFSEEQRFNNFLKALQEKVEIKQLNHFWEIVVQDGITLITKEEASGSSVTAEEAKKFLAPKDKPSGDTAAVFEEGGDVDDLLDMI

Ku70/80 protein = details: gel-based TSA; cited from earlier work
NHEJ = details: earlier report; cited from earlier work
p53 phosphorylation = details: through p53 phosphorylation, ATM pathway activation; cited from earlier work

Ku70/80, sequence (P12956 whole entry): as the sequence (P12956 whole entry) above
Ku70/80, sequence (P13010 whole entry): as the sequence (P13010 whole entry) above
Ku70–Ku80, sequence (P12956 whole entry): as the sequence (P12956 whole entry) above
Ku70–Ku80, sequence (P13010 whole entry): as the sequence (P13010 whole entry) above

IC50 (Ku70/80) [nM] | IC50 (DNA-PK) [nM] | Structure (SMILES) | also measured
– | – | COc1cccc(NC(=O)c2cc(-c3ccc(CC4C(=O)N(c5cccc(C(=O)O)c5)N=C4C)o3)ccc2Cl)c1 (stereo not drawn) [53 (149), 3-(4-((5-(4-chloro-3-((3-methoxyphenyl)carbamoyl)phenyl)furan-2-yl)methyl)-3-methyl-5-oxo-4,5-dihydro-1H-pyrazol-1-yl)benzoic acid] | shift in thermal stability (qualitative) (Ku70–Ku80): concentration-dependent induction of a shift in thermal stability
20700 ± 1840 | 1530 ± 220 | CC1=NN(c2ccc(S(N)(=O)=O)cc2)C(=O)/C1=C\c1ccc(-c2ccc(Cl)c(C(=O)NCc3ccc(F)cc3)c2)o1 [Compound 69, (Z)-2-Chloro-N-(4-fluorobenzyl)-5-(5-((3-methyl-5-oxo-1-(4-sulfamoylphenyl)-1,5-dihydro-4H-pyrazol-4-ylidene)methyl)furan-2-yl)benzamide] | –
7860 ± 4400 | 570 ± 120 | COc1cccc(NC(=O)c2cc(-c3ccc(CC4C(=O)N(c5ccc(S(N)(=O)=O)cc5)N=C4C)o3)ccc2Cl)c1 (stereo not drawn) [Compound 70, 2-chloro-N-(3-methoxyphenyl)-5-(5-((3-methyl-5-oxo-1-(4-sulfamoylphenyl)-4,5-dihydro-1H-pyrazol-4-yl)methyl)furan-2-yl)benzamide] | increase in Ku inhibitory activity (Ku70/80; compared with compound 67): 1–2.5 fold; increase in DNA-PK activity (DNA-PK; compared with compound 67): 1–2.5 fold
3510 ± 1810 | 980 ± 520 | COc1cccc(NC(=O)c2cc(-c3ccc(/C=C4\C(=O)N(c5cccc(-c6nnn[nH]6)c5)N=C4C)o3)ccc2Cl)c1 [Compound 75, (Z)-5-(5-((1-(3-(1H-tetrazol-5-yl)phenyl)-3-methyl-5-oxo-1,5-dihydro-4H-pyrazol-4-ylidene)methyl)furan-2-yl)-2-chloro-N-(3-methoxyphenyl)benzamide] | –
– | – | COc1cccc(NC(=O)c2cc(-c3ccc(CC4C(=O)N(c5cccc(-c6nnn[nH]6)c5)N=C4C)o3)ccc2Cl)c1 (stereo not drawn) [Compound 76 (245), 5-(5-((1-(3-(1H-tetrazol-5-yl)phenyl)-3-methyl-5-oxo-4,5-dihydro-1H-pyrazol-4-yl)methyl)furan-2-yl)-2-chloro-N-(3-methoxyphenyl)benzamide] | direct interaction with Ku70/80 protein (Ku70/80 protein): directly interacts with the Ku70/80 protein; effect in CRISPR gene-editing model (NHEJ): inhibiting NHEJ and activating homologous recombination to increase the efficiency of gene insertion; potentiation of cellular effects of bleomycin and IR (p53 phosphorylation): potentiates the cellular effects of bleomycin and IR
